Several values for one entry are separate records, joined by “and”; a condition that tells them apart may be missing. Equal values may be shown once.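 Test compounds were applied to cells in 96-well plates for 48 hours at 5 doses. Abbreviation: GI50, concentration required for 50% inhibition of growth. Definition used: TGI = concentration required for complete inhibition of growth.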
Tests used:
Test in all cases: NCI-60 cell line screen, 48 h
[1] = system: CAKI-1 renal
[2] = system: HOP-62 NSCLC
[3] = system: HOP-92 NSCLC
[4] = system: K-562 leukemia
[5] = system: M14 melanoma
[6] = system: MALME-3M melanoma
[7] = system: MOLT-4 leukemia
[8] = system: NCI-H460 lung
[9] = system: RXF 393 renal
[10] = system: T-47D breast

Row | Structure (SMILES) | GI50 [1] | TGI [1] | GI50 [2] | TGI [2] | GI50 [3] | TGI [3] | GI50 [4] | TGI [4] | GI50 [5] | TGI [5] | GI50 [6] | TGI [6] | GI50 [7] | TGI [7] | GI50 [8] | TGI [8] | GI50 [9] | TGI [9] | GI50 [10] | TGI [10]
1 | Oc1ccc(NC(=S)Nc2ccccc2)cc1 | > 100000 nM | > 100 µM | > 100 µM | > 100 µM | 51.8 µM | > 100 µM | > 100000 nM | > 100 µM | > 100000 nM | > 100000 nM | > 100000 nM | > 100 µM | > 100000 nM | > 100 µM | > 100 µM | > 100 µM | > 100000 nM | > 100 µM | > 100000 nM | > 100 µM
2 | COc1ccc(C(=O)/C=C/c2sc(Cl)nc2Cl)cc1 | 1700 nM | 5.45 µM | 4.59 µM | 21.2 µM | 4.06 µM | 18 µM | 328 nM | > 100 µM | 466 nM | 2960 nM | 805 nM | 3.33 µM | 369 nM | 13.6 µM | 3.17 µM | 10.6 µM | 1280 nM | 3.02 µM | 2930 nM | 9.23 µM
3 | C[C@@H](Nc1nc(N[C@H](C)C(F)(F)F)nc(-c2cccc(Cl)n2)n1)C(F)(F)F | 24900 nM | 96.2 µM | 27.5 µM | > 100 µM | 10.1 µM | 63.6 µM | > 100000 nM | > 100 µM | > 100000 nM | > 100000 nM | 60200 nM | > 100 µM | > 100000 nM | > 100 µM | 36.1 µM | > 100 µM | 23200 nM | 94.7 µM | 41800 nM | > 100 µM
4 | COc1cc2c(Oc3ccc(NC(=O)C4(C(=O)Nc5ccc(F)cc5)CC4)cc3F)ccnc2cc1OCCCN1CCOCC1 | 547 nM and 768 nM | 1.97 µM and > 4.86 µM | 0.798 µM and 0.573 µM | 2.17 µM and 4.15 µM | 0.243 µM and 0.0433 µM | 1.65 µM and 0.991 µM | 102 nM and 150 nM | 1.78 µM and 1.33 µM | 479 nM and 540 nM | 1830 nM and 1960 nM | 635 nM and 571 nM | 2.51 µM and 2.05 µM | 573 nM and 547 nM | > 24.9 µM and 5.45 µM | 0.521 µM and 0.575 µM | 2.05 µM and 2.51 µM | 468 nM and 661 nM | 1.77 µM and 1.9 µM | 1370 nM and 1440 nM | 3.63 µM and > 8.02 µM
5 | COc1ccc(-n2cc(-c3cc(OC)c(OC)c(OC)c3)nc2SCc2ccc(Cl)cc2)cc1OC | > 100000 nM | > 100 µM | > 100 µM | > 100 µM | 65.5 µM | > 100 µM | 87500 nM | > 100 µM | > 100000 nM | > 100000 nM | > 100000 nM | > 100 µM | > 100000 nM | > 100 µM | > 100 µM | > 100 µM | > 100000 nM | > 100 µM | 15100 nM | > 100 µM
6 | CC[C@@]1(O)C(=O)OCc2c1cc1n(c2=O)Cc2cc3cc(Cl)ccc3nc2-1 |  | 1.07 µM and 1.19 µM | < 0.001 µM |  | 0.0256 µM and 0.0415 µM | 1.32 µM and 0.709 µM | 9.16 nM and 87.3 nM | > 100 µM | 4.67 nM | 85.3 nM and 47.6 nM | 30.5 nM and 44.4 nM | 0.818 µM and 0.564 µM | 1.19 nM |  | < 0.001 µM | 0.0118 µM | 10.6 nM | 0.137 µM | 3.35 nM | 0.167 µM
7 | Cc1cc(=O)oc2c(C3=NN(C=O)C(c4ccccc4)C3)c(O)ccc12 (configuration not stated) |  | > 94.9 µM |  | 91.4 µM |  | 74.5 µM |  | > 100 µM |  | > 95900 nM |  | > 85 µM |  | > 100 µM |  | > 100 µM |  | > 80.5 µM |  | > 100 µM
8 | CCOC(=O)/C(=C/CC/C(C)=C/CC/C(C)=C/CCc1ccoc1)CC(=O)N1CCCCC1 | 3160 nM | 38.3 µM | 4.4 µM | 19.8 µM | 1.7 µM | 4.26 µM | 3910 nM | 96 µM | 2950 nM | 10200 nM | 2620 nM | 7.09 µM | 4030 nM | 9.67 µM | 1.82 µM | 3.7 µM | 2450 nM | 9.62 µM | 2370 nM | 8.65 µM
9 | C=CC(=O)N[C@@H]1CN(c2nc(Nc3cn(C)nc3OC)c3ncn(C)c3n2)C[C@H]1F | 1220 nM | > 100 µM | 26.2 µM | > 100 µM | 17.3 µM | 70.7 µM | 42900 nM | > 100 µM | 18700 nM | 61600 nM | 23400 nM | > 100 µM | 39000 nM | > 100 µM | 34.5 µM | > 100 µM | 34100 nM | > 84.5 µM | 1740 nM | > 100 µM
10 | Cc1c2cnccc2c(C)c2c1c1cc(O)ccc1n2C(C)C | 388 nM | 5.24 µM | 1.6 µM | 4.74 µM | 2.11 µM | 7.28 µM | 1020 nM | 5.6 µM | 678 nM | 2340 nM | 756 nM | 2.58 µM | 289 nM | 1.26 µM | 0.361 µM | 1.56 µM | 935 nM | 2.39 µM | 1980 nM | 6.27 µM
11 | Cc1cccc2c(C3=C(c4cn(C)c5ccccc45)C(=O)NC3=O)cn(C)c12 | > 19100 nM | > 25 µM | 13.4 µM | > 25 µM | 9.91 µM | > 25 µM | > 19700 nM | > 25 µM | > 25000 nM | > 25000 nM | > 17800 nM | > 25 µM | > 25000 nM | > 25 µM | > 21.8 µM | > 25 µM | 6160 nM | 24.4 µM | > 20000 nM | > 25 µM
12 | CC1(C)OB(c2ccc(N(CCOS(C)(=O)=O)CCOS(C)(=O)=O)cc2)OC1(C)C | 1790 nM | 18.4 µM | 7.92 µM | 23.4 µM | 10.2 µM | 48.6 µM | 16300 nM | > 86.2 µM | 3010 nM | 13700 nM | 12900 nM | 46.1 µM | 1680 nM | > 72.7 µM | 12.6 µM | > 100 µM | 24600 nM | > 67.4 µM | 18100 nM | > 100 µM
13 | N#Cc1ncc(C(Cl)Cl)nc1Cl |  | 2.89 µM |  | > 8.07 µM |  | 0.536 µM |  | > 7.1 µM |  | 2820 nM |  | > 6.39 µM |  | > 6.63 µM |  | 3.74 µM |  | 3.39 µM |  | 3.78 µM

From PubChem BioAssay (NCI)
